Experimental data: PMC3977535, “Design and Synthesis of New Dual Binding Site Cholinesterase Inhibitors: in vitro Inhibition Studies with in silico Docking” (Letters in Drug Design & Discovery, 2014)
Read-outs that look alike come from different tables or passages of the source.

Assays:
AChE = target: T1, AChE (Homo sapiens, UniProt P22303); assay: biochemical; format: biochemical; conditions: for inhibition at 500 µM: read-out: AChE Inhibition, Inhibition (%) at 0.5 mM
T1 construct: purchased Sigma Inc
Procedure: (§1) The AChE and BChE inhibition activity was performed according to the method of Ellman with slight modifications. Total volume of the reaction mixture was 100 µL contained 60 µL Na2HPO4 buffer with concentration of 50 mM and pH 7.7. A 10 µL test compound (0.5 mM per well) was added, followed by the addition of 10 µL enzyme (0.005 unit AChE, 0.5 unit BChE per well, Sigma Inc). […] The reaction was initiated by the addition of 10 µL of 0.5 mM per well substrate (acetylthiocholine iodide or butyrylthiocholine bromide), followed by the addition of 10 µL DTNB (0.5 mM per well). […] Synergy HT (BioTek, USA) 96-well plate reader was used in all experiments. All experiments were carried out with their respective controls in triplicate. […] The percent inhibition was calculated by the help of following equation.
(§2) Inhibition%=Control−Test/Control×100

BChE = target: T2, BChE (Homo sapiens, UniProt P06276); assay: BChE inhibition assay (Ellman method with slight modifications); format: biochemical; conditions: for inhibition at 500 µM: read-out: BChE Inhibition, Inhibition (%) at 0.5 mM
T2 construct: purchased Sigma Inc
Procedure: as §1, §2

[1] = 0.5 mM test compound, mean with SEM
[2] = mean with SEM, read-out: AChE Inhibition, IC50
[3] = mean with SEM, read-out: BChE Inhibition, IC50

T1 sequence (P22303 32-614): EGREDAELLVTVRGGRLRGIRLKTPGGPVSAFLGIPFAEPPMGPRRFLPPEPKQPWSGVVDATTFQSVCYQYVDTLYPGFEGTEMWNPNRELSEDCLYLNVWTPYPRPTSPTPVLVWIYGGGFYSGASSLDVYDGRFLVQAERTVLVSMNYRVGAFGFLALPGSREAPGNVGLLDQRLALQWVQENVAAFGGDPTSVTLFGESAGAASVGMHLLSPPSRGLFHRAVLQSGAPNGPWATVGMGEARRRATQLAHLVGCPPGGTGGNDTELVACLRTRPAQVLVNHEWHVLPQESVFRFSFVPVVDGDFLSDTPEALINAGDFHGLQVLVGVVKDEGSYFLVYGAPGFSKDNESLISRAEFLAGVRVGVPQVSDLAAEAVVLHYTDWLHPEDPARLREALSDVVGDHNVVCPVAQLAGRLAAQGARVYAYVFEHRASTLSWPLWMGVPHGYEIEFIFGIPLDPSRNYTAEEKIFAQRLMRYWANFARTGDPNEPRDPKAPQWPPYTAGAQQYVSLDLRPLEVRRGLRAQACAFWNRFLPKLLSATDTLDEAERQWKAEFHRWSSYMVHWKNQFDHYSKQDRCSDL
T2 sequence (P06276 29-602): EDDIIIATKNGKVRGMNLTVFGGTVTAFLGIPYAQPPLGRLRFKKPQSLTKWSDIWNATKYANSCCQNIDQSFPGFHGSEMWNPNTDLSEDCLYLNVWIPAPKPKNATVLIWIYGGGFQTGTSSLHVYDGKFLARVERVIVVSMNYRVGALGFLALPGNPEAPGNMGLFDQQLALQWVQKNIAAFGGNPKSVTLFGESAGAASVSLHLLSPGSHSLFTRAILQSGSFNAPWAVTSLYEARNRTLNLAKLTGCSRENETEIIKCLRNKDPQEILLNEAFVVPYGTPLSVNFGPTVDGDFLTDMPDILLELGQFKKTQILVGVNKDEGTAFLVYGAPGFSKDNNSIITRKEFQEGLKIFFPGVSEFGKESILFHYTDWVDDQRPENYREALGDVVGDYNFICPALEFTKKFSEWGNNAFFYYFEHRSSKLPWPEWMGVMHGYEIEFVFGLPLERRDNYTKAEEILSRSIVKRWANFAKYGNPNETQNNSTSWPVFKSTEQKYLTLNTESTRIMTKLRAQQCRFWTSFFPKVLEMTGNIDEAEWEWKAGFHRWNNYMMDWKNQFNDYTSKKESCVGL

`CC(=O)NNC(=O)Cc1c[nH]c2ccccc12` [Compound 5a, N'-acetyl-2-(1H-indol-3-yl)acetohydrazide] was tested, and the inhibition at 500 µM (AChE; [1]) was 60.52 ± 0.25%, the IC50 (AChE; [2]) was 298.61 ± 0.15 µM and the inhibition at 500 µM (BChE; [1]) was 90.81 ± 0.69%. The IC50 (BChE; [3]) was 55.21 ± 0.12 µM.

In the case of `O=C(Cc1c[nH]c2ccccc12)NNS(=O)(=O)c1cccc([N+](=O)[O-])c1` [Compound 6c, N'-(2-(1H-Indol-3-yl)acetyl)-3-nitrobenzenesulfonohydrazide], the “inhibitory activity against AChE (in words)” value (AChE) is reported as “weak”, the inhibition at 500 µM (AChE; [1]) is reported as 56.21 ± 0.25% and the inhibition at 500 µM (BChE; [1]) is reported as 81.24 ± 0.52%. For the same molecule, the IC50 (BChE; [3]) was 78.51 ± 0.21 µM.

`O=C(Cc1c[nH]c2ccccc12)NNC(=O)C(F)(F)F` [Compound 5b, N'-(2-(1H-indol-3-yl)acetyl)-2,2,2-trifluoroacetohydrazide] showed an inhibition at 500 µM (AChE; [1]) of 75.22 ± 0.41%, an IC50 (AChE; [2]) of 152.31 ± 0.07 µM and an inhibition at 500 µM (BChE; [1]) of 86.64 ± 0.24%. It also gave an IC50 (BChE; [3]) of 68.91 ± 0.07 µM.

Molecule `COC(=O)Cc1c[nH]c2ccccc12` [Compound 2] has an inhibition at 500 µM (AChE; [1]) of 70.61 ± 0.34%, an IC50 (AChE; [2]) of 138.5 ± 0.21 µM and an inhibition at 500 µM (BChE; [1]) of 59.82 ± 0.15%. For the same molecule, the IC50 (BChE; [3]) was 184.2 ± 0.21 µM.

In the case of `O=C(Cc1c[nH]c2ccccc12)NNC(=O)Oc1ccccc1` [Compound 5c, Phenyl 2-(2-(1H-indol-3-yl)acetyl)hydrazinecarboxylate], the “inhibitory activity against AChE (in words)” value (AChE) is reported as “weak”, the inhibition at 500 µM (AChE) is reported as 55.91 ± 0.33% and the “inhibitory activity against BChE (in words)” value (BChE) is reported as “weak”. The inhibition at 500 µM (BChE) was 39.29 ± 0.25%.

`NNC(=O)Cc1c[nH]c2ccccc12` [Compound 3] gave an IC50 (AChE) of 152.11 ± 0.07 µM, an inhibition at 500 µM (AChE) of 69.16 ± 0.25% and an IC50 (BChE) of 139.21 ± 0.07 µM. The inhibition at 500 µM (BChE) was 73.95 ± 0.67%.

`O=C(Cc1c[nH]c2ccccc12)NNS(=O)(=O)c1ccc([N+](=O)[O-])cc1` [Compound 6d, N'-(2-(1H-Indol-3-yl)acetyl)-4-nitrobenzenesulfonohydrazide] was tested, and the “inhibitory activity against AChE (in words)” value (AChE) was “weak”, the inhibition at 500 µM (AChE; [1]) was 58.62 ± 0.52% and the inhibition at 500 µM (BChE; [1]) was 63.69 ± 0.61%. It also gave an IC50 (BChE; [3]) of under 400 µM.

Work on `O=C(Cc1c[nH]c2ccccc12)N/N=C/c1ccc(Cl)cc1` [Compound 4g] yielded an inhibition at 500 µM (AChE; [1]) of 75.79 ± 0.25%, an IC50 (AChE; [2]) of 106.51 ± 0.07 µM and an inhibition at 500 µM (BChE; [1]) of 30.1 ± 0.58%.

`O=C(Cc1c[nH]c2ccccc12)N/N=C/c1ccccc1` [Compound 4a] showed an inhibition at 500 µM (AChE; [1]) of 63.11 ± 0.52%, an IC50 (AChE; [2]) of 198.61 ± 0.14 µM and an inhibition at 500 µM (BChE; [1]) of 79.58 ± 0.42%. It also gave an IC50 (BChE; [3]) of 86.31 ± 0.14 µM.

`O=C(Cc1c[nH]c2ccccc12)NN=C(c1ccccc1)c1ccccc1` [Compound 4f] gave an inhibition at 500 µM (AChE; [1]) of 89.3 ± 0.91%, an IC50 (AChE; [2]) of 91.21 ± 0.06 µM and an inhibition at 500 µM (BChE; [1]) of 89.51 ± 0.69%. For the same molecule, the IC50 (BChE; [3]) was 59.81 ± 0.06 µM.

In the case of `O=C(Cc1c[nH]c2ccccc12)NNS(=O)(=O)c1ccc(Br)cc1` [Compound 6e, N'-(2-(1H-indol-3-yl)acetyl)-4-bromobenzenesulfonohydrazide], the inhibition at 500 µM (AChE; [1]) is reported as 90.78 ± 0.32%, the IC50 (AChE; [2]) is reported as 68.52 ± 0.04 µM and the inhibition at 500 µM (BChE; [1]) is reported as 81.02 ± 0.14%. For the same molecule, the IC50 (BChE; [3]) was 73.52 ± 0.04 µM.

Molecule `Cc1ccc(S(=O)(=O)NNC(=O)Cc2c[nH]c3ccccc23)cc1` [Compound 6a, N'-(2-(1H-Indol-3-yl)acetyl)-4-methylbenzenesulfonohydrazide] has an inhibition at 500 µM (AChE; [1]) of 78.11 ± 0.36%, an IC50 (AChE; [2]) of 121.4 ± 0.16 µM and an inhibition at 500 µM (BChE; [1]) of 72.52 ± 0.33%. For the same molecule, the IC50 (BChE; [3]) was 101.2 ± 0.16 µM.

`O=C(Cc1c[nH]c2ccccc12)NNS(=O)(=O)c1ccccc1[N+](=O)[O-]` [Compound 6b, N'-(2-(1H-Indol-3-yl)acetyl)-2-nitrobenzenesulfonohydrazide] was tested, and the “inhibitory activity against AChE (in words)” value (AChE) was “weak”, the inhibition at 500 µM (AChE; [1]) was 46.41 ± 0.21% and the “inhibitory activity against BChE (in words)” value (BChE) was “weak”. It also gave an inhibition at 500 µM (BChE; [1]) of 42.61 ± 0.42%.

With `O=C(Cc1c[nH]c2ccccc12)N/N=C/c1ccccc1O` [Compound 4b] the inhibition at 500 µM (AChE; [1]) was 75.5 ± 0.33%, the IC50 (AChE; [2]) was 103.11 ± 0.05 µM and the “inhibitory activity against BChE (in words)” value (BChE) was “weak”. It also gave an inhibition at 500 µM (BChE; [1]) of 43.16 ± 0.18%.

Molecule `COc1ccc(/C=N/NC(=O)Cc2c[nH]c3ccccc23)cc1` [Compound 4c] has an inhibition at 500 µM (AChE; [1]) of 75.5 ± 0.56%, an IC50 (AChE; [2]) of 109.6 ± 0.11 µM and an inhibition at 500 µM (BChE; [1]) of 50.2 ± 0.69%.

In the case of `Cc1ccc(/C=N/NC(=O)Cc2c[nH]c3ccccc23)cc1` [Compound 4d], the inhibition at 500 µM (AChE; [1]) is reported as 79.54 ± 0.54%, the IC50 (AChE; [2]) is reported as 98.81 ± 0.14 µM and the “inhibitory activity against BChE (in words)” value (BChE) is reported as “weak”. The inhibition at 500 µM (BChE; [1]) was 43.6 ± 0.55%.

For `C/C(=N\NC(=O)Cc1c[nH]c2ccccc12)c1ccccc1` [Compound 4e], the inhibition at 500 µM (AChE; [1]) was 66.86 ± 0.36%, the IC50 (AChE; [2]) was 174.51 ± 0.11 µM and the inhibition at 500 µM (BChE; [1]) was 68.43 ± 0.18%. The IC50 (BChE; [3]) was 146.21 ± 0.08 µM.
